These are literature values, as cited in patent US20110123622A1, “OPHTHALMIC FORMULATION AND METHOD OF MANUFACTURE THEREOF” (Inotek Pharmaceuticals Corporation, priority 2009, published 2011).

The series deals with human exhibiting elevated intraocular pressure as a result of OHT or POAG.

Consider `O=[N+]([O-])OC[C@H]1O[C@@H](n2cnc3c(NC4CCCC4)ncnc32)[C@H](O)[C@@H]1O` [Compound A, ((2R,3S,4R,5R)-5-(6-(cyclopentylamino)-9H-purin-9-yl)-3,4-dihydroxytetrahydrofuran-2-yl)methyl nitrate], for which the “reduction in IOP, comparison of dose groups” value (350 mcg and 700 mcg treatment groups, HPβCD formulation) is “greatest reduction in IOP”. The “IOP upon a single application” value (formulated 1:20 wt/wt in HPβCD, 2.5 to 700 micrograms per eye) is reported as “statistically significant dose-related decrement in IOP”.
